{"source": "paper PMC12566971", "about": "“Polyprenylated Acylphloroglucinols from Hypericum rochelii and Hypericum olympicum—Cytotoxic Effects on Non-Tumorigenic Cell Lines and Antibacterial Potential” (Pharmaceuticals, 2025)", "key": {"[1]": {"system": "HGF cells", "test": "Western blot for autophagy proteins Atg5, Atg7", "assay_type": "cell-based, human", "settings": "MIC for S. aureus, relative to untreated control", "method": "For Western blot, CCL-1 and HGF cell lines were chosen, and they were seeded in either 6-well plates or 55 mm Petri dishes suitable for cell culture. They were treated with an exposure time of 24 h in an incubator (Panasonic MCO-18AC, Panasonic Healthcare Ltd., […], Japan). […] Hans-Jörg Eibl. In addition, a higher concentration of an […] added to one of the tests for comparison. The samples were trypsinized, collected, washed with PBS (TS1101, HiMedia, Mumbai, India), centrifuged, and frozen at -80 °C if storage was necessary. Then they were lysed on ice with a buffer containing 100 mM Tris-HCl (648313, Sigma-Aldrich, St. Louis, MO, USA) at pH 8.0, 4% sodium dodecyl sulfate (SDS, […], Sigma-Aldrich), 20% glycerol (49779, Sigma-Aldrich), 1% Na3VO4 (450243, Sigma-Aldrich), 200 mM dithiothreitol (DTT, 3483-12-3, Sigma-Aldrich, Burlington, MA, USA) supplemented with protease inhibitor (05892970001, Roche). The cell lysate was heated to boiling for 15 min, then centrifuged at 13,000 rpm for 10 min at 4 °C. Lysates were subjected to denaturing SDS polyacrylamide gel electrophoresis on acrylamide 4-20% gradient Mini-PROTEAN® TGXTM Stain-Free gels (4568094, Bio-Rad Laboratories, Hercules, CA, USA). […] Densitometric calculation and analysis was performed with Quantity One software version 4.6.9 (Bio-Rad Laboratories)."}, "[2]": {"system": "CCL-1 cells", "test": "Colony-forming unit assay", "assay_type": "cell-based, murine", "settings": "for Percentage of colonies, CCL-1: untreated control = 100%", "method": "The CFU was also performed according to ISO 10993-5 [56]. Briefly, the cell lines were seeded at a concentration like for the MTT assay in 6-well plates, treated with the chosen agents and left for a 48 h exposure. Then, the cells were trypsinized, and pre-calculated 20 to 100 µL from the cell suspension was added to a sterile Roswell Park Memorial Institute (RPMI) medium (RPMI-A, Capricorn Scientific), containing 20% of the respective cell culture medium for each cell line but with a final concentration of FBS and L-glutamine of 40–42% and 0.8–1.2 mM, respectively, 0.2% NaHCO3 (S6297, Merck Sigma-Aldrich, Saint Louis, MI, USA), and 0.8% methylcellulose (M0512, Merck Sigma-Aldrich) for viscosity. The viscous cell solution was vortexed for 10 s and dispensed in an equal number of cells per well in 6-well plates (1.2 mL per well) in triplicate for each concentration of treatment. HaCaT and HEK-293 were seeded at a concentration of 2500 cells per mL, CCL-1 and HEPG2—2000 cells per mL, and HGF—1000 cells per mL. The plates were incubated for 6 to 10 days, and when the colonies reached 20 to 50 cells per colony, 100 µL MTT salt solution was added to each well. After half an hour, the stained colonies were counted manually using a microscope."}, "[3]": {"system": "rabbit skin", "settings": "in vivo", "method": "Dermal toxicological screening of the chosen two non-toxic active substances was performed on animals. This was carried out according to the European standard ISO 10993-10: 2010 (E): Biological evaluation of medical devices, Part 10 Skin irritation and sensitization tests (6. […] The animal study protocol was approved by the opinion No. 148 of 09.04.2019 of the Ethics Committee of the Bulgarian Food Safety Agency of the Ministry of Agriculture, Food, and Forestry. The Permit to work with experimental rabbits No. 232 was valid until 11.04.2024 and issued on the basis of Article 155, paragraph 7, of the Veterinary Medical Activity Act. The albino rabbits were cared for as specified in ISO 10993-2 (withdrawn; superseded by ISO 10993-2:2022) and Ordinance No. 20 (State Gazette of Bulgaria, No. 87, 9 November 2012). Four square test sites were made on the back of the rabbit by clipping the fur. The samples were applied to 2 of them, while the other 2 were used as a positive control (10–20% SDS) and a negative control (the buffer in which the agents were diluted, i.e., PBS). The exposure time was 4 h, and at the end of it the appearance was checked for erythema (redness) and edema. Additional inspections were performed at hours 24, 48, and 72."}}, "data": [{"smiles": "CC(C)=CCCC1(C)C(CC=C(C)C)CC2C(=O)C1(C(=O)C(C)C)C(=O)C(CC=C(C)C)=C2O", "note": "(centres unmarked) [Olympiforin B]", "values": [{"measurement": "Increase of Atg5 and Atg7 proteins", "setting": "[1]", "result": "106–135%"}, {"measurement": "Colonies per well for CCL-1 cells", "setting": "[2]; 1/2 × IC50, 48 h exposure", "result": 167}, {"measurement": "Percentage of colonies, CCL-1", "setting": "[2]; 1/2 × IC50", "result": 106, "unit": "%"}, {"measurement": "Colonies per well for CCL-1 cells", "setting": "[2]; 2 × IC50, 48 h exposure", "result": 61}, {"measurement": "Percentage of colonies, CCL-1", "setting": "[2]; 2 × IC50", "result": 39, "unit": "%"}, {"measurement": "Colonies per well for CCL-1 cells", "setting": "[2]; IC50, 48 h exposure", "result": 62}, {"measurement": "Percentage of colonies, CCL-1", "setting": "[2]; IC50", "result": 40, "unit": "%"}, {"measurement": "Skin irritation on rabbits", "setting": "[3]", "result": "do not cause skin toxicity"}]}]}
